Experimental data taken from patent US20240294595A1, “GLYCOPEPTIDES AND USES THEREOF” (Arizona Board of Regents on Behalf of the University of …, priority 2013, published 2024).
Entries after “also recorded” stand apart in the source; their conditions may differ.

Columns and labels:
[1] = stability in mouse serum at 37° C. (FI-MSn); format: in vitro ADME; details: for degradation in mouse serum: mouse serum at 37° C.
Source text: Chemical stability of the glycopeptides in vivo plays an important role in the deliverability of the drugs to the site(s) of action within the brain. It is also important to know what the chemical or metabolic instabilities are in order to inform the drug design process. […] Data were fitted using a single exponential decay model (R^2>0.71, in all cases).
The overall process was as follows: Flow-injection tandem mass spectrometry (FI-MS^n) was used to observe the degradation of the peptides and glycopeptides with a Thermo LCQ with electrospray ionization (ESI). The technique involved injection of a sample bolus of material in mouse serum via a six port valve with fluid flow delivered via a syringe pump, and subsequent electrospray ionization (ESI) followed by mass spectral analysis. Samples were diluted to a concentration of ˜5 μM of each PACAP analogue, and were incubated at 37° C. for times varying from 1 to 60 minutes. After samples had been incubated for the prescribed amount of time they were prepared for mass spectrometry analysis by withdrawing 10 microliters of solution and spiking with 1 microliter of a 10 μM solution of peptide internal standard (angiotensin II) in 50% acetic acid and subjecting them to a standard C18 zip tip desalting. These solutions, once eluted from the zip tip were diluted to 100 μL in 50:50 acetonitrile/water with 0.1% formic acid. Tandem mass spectrometry analysis (MS^3) was conducted to yield specific, quantitative signals proportional to the amount of PACAP analogue at each time point. This technique was also used with microdiasylate samples from a mouse after i.p. administration of PACAP1-27-S-G.

VPAC1 = target: T1, VPAC1 (Homo sapiens, UniProt P32241); assay: VPAC1 agonist data (Table 2); format: cell-based
T1 sequence (P32241 31-457): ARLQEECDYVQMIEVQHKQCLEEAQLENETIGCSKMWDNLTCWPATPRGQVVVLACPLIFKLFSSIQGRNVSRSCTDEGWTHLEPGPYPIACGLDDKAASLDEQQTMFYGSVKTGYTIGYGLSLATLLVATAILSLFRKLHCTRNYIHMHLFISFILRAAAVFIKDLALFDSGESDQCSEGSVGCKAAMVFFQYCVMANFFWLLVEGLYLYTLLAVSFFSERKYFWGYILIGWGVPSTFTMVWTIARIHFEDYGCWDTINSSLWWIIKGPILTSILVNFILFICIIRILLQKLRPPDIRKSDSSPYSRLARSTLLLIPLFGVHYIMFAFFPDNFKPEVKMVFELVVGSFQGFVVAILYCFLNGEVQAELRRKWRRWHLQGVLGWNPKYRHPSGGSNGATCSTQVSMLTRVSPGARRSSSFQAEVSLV

VPAC2 = target: T2, VPAC2 (Homo sapiens, UniProt P41587); assay: VPAC2 agonist data (Table 2); format: cell-based
T2 sequence (P41587 24-438): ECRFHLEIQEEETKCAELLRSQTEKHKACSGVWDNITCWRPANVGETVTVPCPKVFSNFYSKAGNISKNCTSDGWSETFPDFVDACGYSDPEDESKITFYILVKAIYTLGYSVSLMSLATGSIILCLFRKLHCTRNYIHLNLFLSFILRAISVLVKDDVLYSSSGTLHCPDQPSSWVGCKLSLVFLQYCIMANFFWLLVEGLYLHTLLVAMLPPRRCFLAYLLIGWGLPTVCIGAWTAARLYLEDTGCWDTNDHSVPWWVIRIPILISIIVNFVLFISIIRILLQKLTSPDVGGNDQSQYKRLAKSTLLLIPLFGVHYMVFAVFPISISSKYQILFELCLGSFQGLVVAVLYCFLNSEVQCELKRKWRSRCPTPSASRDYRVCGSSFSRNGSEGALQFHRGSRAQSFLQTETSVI

[2] = test system: traumatic brain injury (TBI); assay: mouse model of diffuse TBI (midline fluid percussion injury); format: in vivo
Method: Lead compound 2LS80Mel was evaluated for its neuroprotective potential in vivo utilizing a mouse model of traumatic brain injury (TBI). Mice were pretreated with either a single dose of 2LS80Mel (10 mg/kg i.p.) or sterile saline 30 min prior to being subjected to a midline fluid percussion injury. The mice were then evaluated for sleep-wake behavior (FIGS. 8A-C), motor skills and cognition, (FIGS. 8D-F), the presence of inflammatory markers, (FIGS. 8G-L), and microglial morphology (FIGS. 8M-O).

PAC1 = target: T3, PAC1 (Homo sapiens, UniProt P41586); assay: PAC1 agonist data (Table 2); format: cell-based; design: host or cells: CHO (clonal line PAC1-CHO)
T3 sequence (P41586 21-468): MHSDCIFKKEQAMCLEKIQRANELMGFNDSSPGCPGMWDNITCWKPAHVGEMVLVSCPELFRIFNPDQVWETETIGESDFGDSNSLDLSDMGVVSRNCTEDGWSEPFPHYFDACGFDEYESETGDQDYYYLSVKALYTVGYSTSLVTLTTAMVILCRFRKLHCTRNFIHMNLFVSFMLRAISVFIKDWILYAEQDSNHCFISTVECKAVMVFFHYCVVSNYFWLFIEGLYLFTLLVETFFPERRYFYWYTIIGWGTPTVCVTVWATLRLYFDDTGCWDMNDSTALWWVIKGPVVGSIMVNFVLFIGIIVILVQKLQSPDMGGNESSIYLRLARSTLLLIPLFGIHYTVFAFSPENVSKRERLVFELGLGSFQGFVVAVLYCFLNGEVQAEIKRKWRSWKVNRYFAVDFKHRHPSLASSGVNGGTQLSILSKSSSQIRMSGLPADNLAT
Method: A custom DNA clone of the human PAC1 gene with 3 hemagglutinin (HA) tags inserted 3′ to the signal peptide sequence (to avoid proteolytic loss) was obtained from Genecopoeia (Rockville, MD). The construct was electroporated into Chinese Hamster Ovary (CHO) cells, and selected for with 500 μg/mL of G418. The resulting population was screened for high expressing clones, and one such clone selected for further analysis. […] This cell line was used for all molecular pharmacology experiments. The cells were maintained in DMEM/F12 with 10% heat-inactivated FBS, 1× penicillin/streptomycin, and 500 μg/mL G418, at 37° C. and 5% CO2.
All molecular pharmacology experiments were carried out using a FLIPR Tetra from Molecular Devices (Sunnyvale, CA), set to image calcium flux using the manufacturer's recommended settings and protocols. The day before an experiment, the PAC1-CHO cells were split into 384 well black walled, clear bottom microplates, 10,000 cells per well. The cells were recovered overnight in growth medium (as above). The next day, the growth medium was replaced with Calcium 6 dye (Molecular Devices) using the manufacturer recommended buffer with 2.5 mM probenecid. The cells were incubated for 2 hours in the culture incubator, and removed during the last 15 minutes to allow equilibration to room temperature. Compound as indicated below was added to the cells using a 384 tip block, with real time monitoring before, during, and 15 minutes after compound addition. The resulting calcium flux was recorded, and the maximum-minimum response over the entire observation time calculated and reported as the mean±SEM (4 wells per point).
For agonist mode experiments, compound was added in an 11 point concentration curve, with a vehicle control (buffer). […] The response was analyzed using a 3 variable non-linear curve fit, and the EC50 (nM) and EMax (%) calculated and reported (Prism, GraphPad, La Jolla, CA).

[3] = 10 mg/kg i.p. 30 min prior to TBI

Row | SMILES | degradation in mouse serum [1] | EC50 (VPAC1) | Emax (VPAC1) | EC50 (VPAC2) | Emax (VPAC2) | cumulative minutes slept in the first 6 h post-injury [2, 3] | sleep in the first dark period [2, 3] | CD11b+Ly6Chigh and CD11b+CD115+Ly6Chigh monocyte populations ([2]; 10 mg/kg i.p. prior to TBI) | sensorimotor deficits, modified NSS ([2]; 10 mg/kg i.p. prior to TBI) | Rotarod latency to fall ([2]; 10 mg/kg i.p. prior to TBI, 2, 5, 7 DPI) | levels of select inflammatory cytokines ([2]; 2LS80Mel-treated vs saline-treated) | microglial morphology ([2]; 2LS80Mel-treated vs saline-treated, 15 DPI) | behavioral, neurological, and motor skill deficits ([2]; overall, FIG. 8) | EC50 (PAC1) | Emax (PAC1) | mouse serum t1/2 in vitro ([1]; compared to native / non-glycosylated peptide)
1 | CC[C@H](C)[C@H](NC(=O)CNC(=O)[C@H](CC(=O)O)NC(=O)[C@H](CO)NC(=O)[C@@H](N)Cc1cnc[nH]1)C(=O)N[C@@H](Cc1ccccc1)C(=O)N[C@H](C(=O)N[C@@H](CC(=O)O)C(=O)N[C@@H](CO)C(=O)N[C@@H](Cc1ccc(O)cc1)C(=O)N[C@@H](CO)C(=O)N[C@@H](CCCNC(=N)N)C(=O)N[C@@H](Cc1ccc(O)cc1)C(=O)N[C@@H](CCCNC(=N)N)C(=O)N[C@@H](CCCCN)C(=O)N[C@@H](CCC(N)=O)C(=O)N[C@@H](CCSC)C(=O)N[C@@H](C)C(=O)N[C@H](C(=O)N[C@@H](CCCCN)C(=O)N[C@@H](CCCCN)C(=O)N[C@@H](Cc1ccc(O)cc1)C(=O)N[C@@H](CC(C)C)C(=O)N[C@@H](C)C(=O)N[C@@H](C)C(=O)N[C@H](C(=O)N[C@@H](CC(C)C)C(N)=O)C(C)C)C(C)C)[C@@H](C)O [PACAP1-27, PACAP-27, reference compound] | degraded over 30 min |  |  |  |  |  |  |  |  |  |  |  |  |  |  | 
2 | CC[C@H](C)[C@H](NC(=O)CNC(=O)[C@H](CC(=O)O)NC(=O)[C@H](CO)NC(=O)[C@@H](N)Cc1c[nH]cn1)C(=O)N[C@@H](Cc1ccccc1)C(=O)N[C@H](C(=O)N[C@@H](CC(=O)O)C(=O)N[C@@H](CO)C(=O)N[C@@H](Cc1ccc(O)cc1)C(=O)N[C@@H](CO)C(=O)N[C@@H](CCCNC(=N)N)C(=O)N[C@@H](Cc1ccc(O)cc1)C(=O)N[C@@H](CCCNC(=N)N)C(=O)N[C@@H](CCCCN)C(=O)N[C@@H](CCC(N)=O)C(=O)N[C@@H](CC(C)C)C(=O)N[C@@H](C)C(=O)N[C@H](C(=O)N[C@@H](CCCCN)C(=O)N[C@@H](CCCCN)C(=O)N[C@@H](Cc1ccc(O)cc1)C(=O)N[C@@H](CC(C)C)C(=O)N[C@@H](C)C(=O)N[C@@H](C)C(=O)N[C@H](C(=O)N[C@@H](CC(C)C)C(=O)N[C@@H](CO[C@@H]1O[C@H](CO[C@H]2O[C@H](CO)[C@H](O)[C@H](O)[C@H]2O)[C@@H](O)[C@H](O)[C@H]1O)C(N)=O)C(C)C)C(C)C)[C@@H](C)O [Compound 2LS80Mel] |  | 0.55 nM | 102% | 9.4 nM | 86% | slept comparable minutes to uninjured sham animals | prevented this injury-induced increase in sleep | not seen; also recorded: prevented increases in peripheral monocyte populations | prevented | comparable to uninjured shams at all time points post-injury | no significant differences | no significant differences | attenuated behavioral, neurological, and motor skill deficits | 0.57 nM | 99% | 
3 | CC[C@H](C)[C@H](NC(=O)CNC(=O)[C@H](CC(=O)O)NC(=O)[C@H](CO)NC(=O)[C@@H](N)Cc1c[nH]cn1)C(=O)N[C@@H](Cc1ccccc1)C(=O)N[C@H](C(=O)N[C@@H](CC(=O)O)C(=O)N[C@@H](CO)C(=O)N[C@@H](Cc1ccc(O)cc1)C(=O)N[C@@H](CO)C(=O)N[C@@H](CCCNC(=N)N)C(=O)N[C@@H](Cc1ccc(O)cc1)C(=O)N[C@@H](CCCNC(=N)N)C(=O)N[C@@H](CCCCN)C(=O)N[C@@H](CCC(N)=O)C(=O)N[C@@H](CCSC)C(=O)N[C@@H](C)C(=O)N[C@H](C(=O)N[C@@H](CCCCN)C(=O)N[C@@H](CCCCN)C(=O)N[C@@H](Cc1ccc(O)cc1)C(=O)N[C@@H](CC(C)C)C(=O)N[C@@H](C)C(=O)N[C@@H](C)C(=O)N[C@H](C(=O)N[C@@H](CC(C)C)C(=O)N[C@@H](CO[C@@H]1O[C@H](CO)[C@@H](O)[C@H](O)[C@H]1O)C(N)=O)C(C)C)C(C)C)[C@@H](C)O [PACAP1-27-S-G] | degraded over 30 min |  |  |  |  |  |  |  |  |  |  |  |  |  |  | significant increase
